Results from publication PMC2409616 (British Journal of Cancer, 2004).
Values joined by “and” are separate entries in the source; they are usually repeats but may differ in a detail not shown here. Equal entries are not always repeated. Where two headings read alike, the source gives them in different places.

How the values were obtained:
WiDr = assay: cells; details: Homo sapiens, 4 h, read-out: IC50 following 4 h drug exposure
V79^puro = assay: cells; details: Cricetulus griseus, 4 h, read-out: IC50 following 4 h drug exposure
UV4 [1] = system: UV4
SiHa = assay: cells; details: Homo sapiens, 4 h, read-out: IC50 following 4 h drug exposure
UV4 [2] = assay: cells; details: Cricetulus griseus, UV4, 4 h, read-out: IC50 following 4 h drug exposure
AA8 = assay: cells; details: Cricetulus griseus, CHO-AA8, 4 h, read-out: IC50 following 4 h drug exposure
SiHa MCLs = assay: Transport through multicellular layers (two-chamber diffusion apparatus); details: 100 μM in donor compartment
SiHa-NTR^puro cells = assay: Metabolic consumption of prodrug in stirred single-cell suspensions (loss from extracellular medium); details: corrected to 10^6 cells ml^−1, mean±s.e.m., 2–3 cell suspensions
SiHa cells = assay: Metabolic consumption of prodrug in stirred single-cell suspensions (loss from extracellular medium); details: corrected to 10^6 cells ml^−1, mean±s.e.m., 2–3 cell suspensions

## NC(=O)c1cc(N2CC2)c(N)cc1[N+](=O)[O-] [compound 5]
WiDr
  IC50: 141 ± 34 µM
V79^puro
  IC50: 238 ± 6 µM
UV4 [1]
  AA8/UV4 intra-experiment IC50 ratio: 1.2±0.1
SiHa
  IC50: 163 ± 39 µM
UV4 cells
  Bioactivity of HPLC fraction against UV4 cells: significant cytotoxicity
SiHa-NTR^puro MCLs
  Appearance of metabolite in donor and receiver compartments: accumulated in both compartments
UV4 [2]
  IC50: 47 ± 5 µM
AA8
  IC50: 62 ± 12 µM

## NC(=O)c1cc(N2CC2)c(NO)cc1[N+](=O)[O-] [compound 4, 5-(aziridin-1-yl)-4-hydroxylamino-2-nitrobenzamide]
WiDr
  IC50: 26 ± 5 µM
V79^puro
  IC50: 6.9 ± 0.6 µM
SiHa MCLs
  Appearance in the receiver compartment in the presence of an MCL vs bare support membrane: greatly reduced
UV4 [1]
  AA8/UV4 intra-experiment IC50 ratio: 63 and 63±5
  Fold less potent in the four repair competent cell lines than in UV4: 11–70 fold
SiHa
  IC50: 45 ± 9 µM
UV4 cells
  Bioactivity of HPLC fraction against UV4 cells: greatest activity
SiHa-NTR^puro MCLs
  Appearance of metabolite in donor and receiver compartments: not detected at all in the receiver compartment
UV4 [2]
  IC50: 0.62 ± 0.05 µM
AA8
  IC50: 39 ± 6 µM

## NC(=O)c1cc(N(CCCl)CCCl)c([N+](=O)[O-])cc1[N+](=O)[O-] [compound 7, 5-[N,N-bis(2-chloroethyl)amino]-2,4-dinitrobenzamide]
SiHa-NTR^puro cells
  First-order rate constant k of metabolic consumption: 0.6 ± 0.2 h⁻¹
WiDr
  IC50: > 1000 µM
V79^puro
  IC50: > 500 µM
UV4 [1]
  AA8/UV4 intra-experiment IC50 ratio: ca 1.3
SiHa
  IC50: > 800 µM
V79-NTR^puro cells; V79-NTR^puro, corrected to 10^6 cells ml^−1, mean±s.e.m., 2–3 cell suspensions
  First-order rate constant k of metabolic consumption: 0.17 ± 0.003 h⁻¹
SiHa cells
  First-order rate constant k of metabolic consumption: <0.001 h⁻¹
UV4 [2]
  IC50: 761 ± 89 µM
AA8
  IC50: ~1000 µM
V79^puro cells (NTR−ve); V79^puro, corrected to 10^6 cells ml^−1, mean±s.e.m., 2–3 cell suspensions
  First-order rate constant k of metabolic consumption: 0.0020 ± 0.0001 h⁻¹

## NC(=O)c1cc(N2CC2)c([N+](=O)[O-])cc1[N+](=O)[O-] [compound 1, 5-(aziridin-1-yl)-2,4-dinitrobenzamide, reference compound]
SiHa-NTR^puro cells
  First-order rate constant k of metabolic consumption: 0.22 ± 0.06 h⁻¹
WiDr
  IC50: 485 ± 34 µM
V79^puro
  IC50: 2950 ± 113 µM
SiHa
  IC50: 277 ± 36 µM
V79-NTR^puro cells; Chinese hamster
  First-order rate constant k of metabolic consumption: 0.08 ± 0.03 h⁻¹
UV4 cells; extracellular medium of V79-NTR^puro suspensions (5 × 10^6 ml^−1, 3 h) with CB 1954
  Bioactivity of HPLC fraction against UV4 cells: weak cytotoxicity
SiHa cells
  First-order rate constant k of metabolic consumption: 0.0066 ± 0.0001 h⁻¹
UV4 [2]
  IC50: 135 ± 28 µM
AA8
  IC50: 2480 ± 260 µM
V79^puro cells (NTR−ve); Chinese hamster
  First-order rate constant k of metabolic consumption: 0.0010 ± 0.0004 h⁻¹

## NC(=O)c1cc(N(CCCl)CCCl)c([N+](=O)[O-])cc1NO [compound 8]
WiDr
  IC50: 1.2 ± 0.1 µM
V79^puro
  IC50: 1.74 ± 0.23 µM
UV4 [1]
  AA8/UV4 intra-experiment IC50 ratio: 51±1
SiHa
  IC50: 2.07 ± 0.08 µM
UV4 [2]
  IC50: 0.045 ± 0.001 µM
AA8
  IC50: 2.3 ± 0.1 µM

## NC(=O)c1cc(N2CC2)c([N+](=O)[O-])cc1NO [compound 2]
UV4 [1]
  AA8/UV4 intra-experiment IC50 ratio: 3.4
UV4 cells
  Bioactivity of HPLC fraction against UV4 cells: significant cytotoxicity
SiHa-NTR^puro MCLs
  Appearance of metabolite in donor and receiver compartments: not detected in either compartment
UV4 [2]
  IC50: 6.3 µM
AA8
  IC50: 22 µM

## NC(=O)c1cc(N2CC2)c([N+](=O)[O-])cc1N [compound 3]
WiDr
  IC50: 21 ± 3 µM
V79^puro
  IC50: 56 ± 7 µM
SiHa
  IC50: 7.9 ± 3.3 µM
UV4 cells
  Bioactivity of HPLC fraction against UV4 cells: significant cytotoxicity
SiHa-NTR^puro MCLs
  Appearance of metabolite in donor and receiver compartments: accumulated in both compartments
SiHa-NTR^puro MCLs; human
  Initial flux of metabolite: ~0.2 µM/h
UV4 [2]
  IC50: 3.7 ± 0.7 µM
AA8
  IC50: 28 ± 8 µM
